In patent US20140017223A1, “Pharmaceutical Compositions Comprising A Pancreatic Enzyme Preparation With Viral Infectivity Reduced Below A Significant Level And Methods Of Preparing And Using The Same” (Aptalis Pharma Canada Inc., priority 2010, published 2014):

Tested on: PPV
Experiment: Inactivation of PPV by BPL in higher concentration of PEP (200 mg/ml), time course, thiosulfate quench (Example 5)
Assay type: cell-based, porcine parvovirus (PPV)
Conditions: 200 mg PEP/ml
Experimental: The focus of this experiment was to measure the effect of increased PEP concentration on the efficiency of the inactivation procedure and to evaluate lower concentration ranges of BPL.
PPV virus stock (prepared using standard protocols (Arella et al., Physicochemical properties, production, and purification of parvoviruses. 1990, In Tijssen, P. (ed.), CRC handbook of parvoviruses. Boca Raton, Fla.: CRC Press, 11-30)) was diluted with water and this solution (containing 1.42×10^10 FFID50 PPV viruses) was used to suspend the 0.5 gram of PEP powder to yield a final concentration of 200 mg PEP/ml.
Tubes were incubated for one hour at 25° C. before the addition of BPL. BPL was added either directly to the PEP solution (for a final concentration of 0.4 vol. %) or it was first diluted ten and hundred times for final concentrations of 0.04 vol. % and 0.004 vol. %, respectively. After the addition of BPL, the solution was further mixed and incubated at 25° C. for a predetermined period (1, 2, 4, 6, or 8 hours). A sodium thiosulfate solution was freshly prepared on the day of each inactivation experiments. After the period expired for the BPL inactivation, sodium thiosulfate was added to the PEP solution, mixed intensively and incubated at least 6 hours at 4° C. to quench the excess BPL. After this step the infectivity titration experiments as described in U.S. Patent Publication No. 2009/0226414 were performed. All experiments were done using three parallel samples for each time point.

O=C1CCO1 [BPL, Beta-propiolactone]
Detected PPV titer average (0.004% BPL, 1 hr at 25° C.): 8.13 × 10^9 FFID50/g
Log10 of inactivation (0.004% BPL, 1 hr at 25° C.): 0.4 Log10
Detected PPV titer average (0.004% BPL, 2 hr at 25° C.): 5.96 × 10^9 FFID50/g
Log10 of inactivation (0.004% BPL, 2 hr at 25° C.): 0.6 Log10
Detected PPV titer average (0.004% BPL, 4 hr at 25° C.): 5.86 × 10^9 FFID50/g
Log10 of inactivation (0.004% BPL, 4 hr at 25° C.): 0.58 Log10
Detected PPV titer average (0.004% BPL, 6 hr at 25° C.): 6.65 × 10^9 FFID50/g
Log10 of inactivation (0.004% BPL, 6 hr at 25° C.): 0.53 Log10
Detected PPV titer average (0.004% BPL, 8 hr at 25° C.): 6.68 × 10^9 FFID50/g
Log10 of inactivation (0.004% BPL, 8 hr at 25° C.): 0.53 Log10
Detected PPV titer average (0.04% BPL, 1 hr at 25° C.): 4.01 × 10^9 FFID50/g
Log10 of inactivation (0.04% BPL, 1 hr at 25° C.): 0.7 Log10
Detected PPV titer average (0.04% BPL, 2 hr at 25° C.): 2.06 × 10^9 FFID50/g
Log10 of inactivation (0.04% BPL, 2 hr at 25° C.): 1.0 Log10
Detected PPV titer average (0.04% BPL, 4 hr at 25° C.): 1.54 × 10^9 FFID50/g
Log10 of inactivation (0.04% BPL, 4 hr at 25° C.): 1.2 Log10
Detected PPV titer average (0.04% BPL, 6 hr at 25° C.): 7.66 × 10^8 FFID50/g
Log10 of inactivation (0.04% BPL, 6 hr at 25° C.): 1.5 Log10
Detected PPV titer average (0.04% BPL, 8 hr at 25° C.): 4.91 × 10^8 FFID50/g
Log10 of inactivation (0.04% BPL, 8 hr at 25° C.): 1.7 Log10
Detected PPV titer average (0.4% BPL, 1 hr at 25° C.): 3.06 × 10^7 FFID50/g
Log10 of inactivation (0.4% BPL, 1 hr at 25° C.): 2.8 Log10
Detected PPV titer average (0.4% BPL, 2 hr at 25° C.): 8.69 × 10^6 FFID50/g
Log10 of inactivation (0.4% BPL, 2 hr at 25° C.): 3.4 Log10
Detected PPV titer average (0.4% BPL, 4 hr at 25° C.): 2.13 × 10^6 FFID50/g
Log10 of inactivation (0.4% BPL, 4 hr at 25° C.): 4.0 Log10
Detected PPV titer average (0.4% BPL, 6 hr at 25° C.): 3.26 × 10^5 FFID50/g
Log10 of inactivation (0.4% BPL, 6 hr at 25° C.): 4.8 Log10
Detected PPV titer average (0.4% BPL, 8 hr at 25° C.): 1.69 × 10^5 FFID50/g
Log10 of inactivation (0.4% BPL, 8 hr at 25° C.): 5.1 Log10
